Data on two molecules can be found in patent US9765075B2, “Substituted bridged urea analogs as sirtuin modulators” (GLAXOSMITHKLINE LLC, priority 2013, dated 2017).

Test in all cases: SIRT1 activation dose-response, OAcADPr assay with Ac-p53(W5) substrate
What all share (assay type): biochemical

In one data set the target is T1, full-length hSIRT1 WT (Homo sapiens, UniProt Q96EB6).
T1 construct: Full-length human SIRT1 (hSIRT1) proteins were expressed with a C-terminal His6 tag; His6 (C); made in house
T1 sequence (Q96EB6 1-747): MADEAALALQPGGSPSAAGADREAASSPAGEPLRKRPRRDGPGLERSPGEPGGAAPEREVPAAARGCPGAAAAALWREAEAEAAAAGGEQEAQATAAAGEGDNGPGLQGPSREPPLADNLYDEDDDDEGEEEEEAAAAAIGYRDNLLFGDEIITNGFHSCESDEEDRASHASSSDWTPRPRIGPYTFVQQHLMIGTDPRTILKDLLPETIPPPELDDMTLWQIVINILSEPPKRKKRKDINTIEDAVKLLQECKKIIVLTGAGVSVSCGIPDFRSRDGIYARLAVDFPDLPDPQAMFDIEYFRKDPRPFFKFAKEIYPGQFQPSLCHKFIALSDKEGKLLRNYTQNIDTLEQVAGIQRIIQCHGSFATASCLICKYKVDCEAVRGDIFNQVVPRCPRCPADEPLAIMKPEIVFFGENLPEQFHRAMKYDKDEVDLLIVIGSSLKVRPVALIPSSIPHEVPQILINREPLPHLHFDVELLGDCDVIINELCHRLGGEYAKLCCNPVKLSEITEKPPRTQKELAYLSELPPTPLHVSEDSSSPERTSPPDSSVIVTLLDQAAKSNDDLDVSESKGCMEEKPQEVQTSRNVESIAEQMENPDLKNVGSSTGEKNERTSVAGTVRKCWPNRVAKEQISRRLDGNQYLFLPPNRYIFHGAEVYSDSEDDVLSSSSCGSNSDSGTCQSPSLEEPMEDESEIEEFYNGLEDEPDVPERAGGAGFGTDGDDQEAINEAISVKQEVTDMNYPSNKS
As to conditions: for EC50: hSIRT1 WT, activation dose-response, Ac-p53(W5) substrate.

The next data set addresses T2, full-length hSIRT1 N226A (Homo sapiens, UniProt Q96EB6, N226A).
T2 construct: The following point mutants of full-length hSIRT1 were generated; His6 (C); made in house
T2 sequence (Q96EB6 1-747 N226A): T1 sequence (Q96EB6 1-747) with N226A
Conditions: for EC50: hSIRT1 N226A, activation dose-response, Ac-p53(W5) substrate.

The target in a further data set is T3, full-length hSIRT1 V224A (Homo sapiens, UniProt Q96EB6, V224A).
T3 construct: The following point mutants of full-length hSIRT1 were generated; His6 (C); made in house
T3 sequence (Q96EB6 1-747 V224A): T1 sequence (Q96EB6 1-747) with V224A
Conditions: for EC50: hSIRT1 V224A, activation dose-response, Ac-p53(W5) substrate.

Where a chain is given by its changes, count along the chain named.

As for `O=C(Nc1ccccn1)N1c2nc(-c3cccc(C(F)(F)F)c3)ccc2N2CC[C@H]1C2` [Example 7], at full-length hSIRT1 WT, the “EC50 fold shift (mutant EC50/wild-type EC50)” value turned out to be 1.00, the “RVmax fold shift = (wild-type RVmax−1)/(mutant RVmax−1)” value (from here on “RVmax fold shift =”) was 1.00 and it took 2200 nM to reach a half-maximal effect (EC50). On full-length hSIRT1 N226A, the “EC50 fold shift (mutant EC50/wild-type EC50)” value is on record as 1.78, the “RVmax fold shift =” value turned out to be 1.32 and the EC50 worked out at 3920 nM. Moreover, at full-length hSIRT1 V224A, the “EC50 fold shift (mutant EC50/wild-type EC50)” value is 1.18, the “RVmax fold shift =” value came to 0.72 and the EC50 amounted to 2600 nM.

Regarding `Cc1cnc2c(NC(=O)N3c4nc(-c5cccc(C(F)(F)F)c5)ccc4N4CC[C@H]3C4)cccc2n1` [Example 8], the entries for the “EC50 fold shift (mutant EC50/wild-type EC50)” value on full-length hSIRT1 WT, at full-length hSIRT1 N226A and on full-length hSIRT1 V224A were 1.00, 2.15 and 1.87, respectively. The “RVmax fold shift =” value on full-length hSIRT1 WT turned out to be 1.00; on full-length hSIRT1 N226A, 1.34; on full-length hSIRT1 V224A, 0.79. Further, the EC50 on full-length hSIRT1 WT was found to be 480 nM; on full-length hSIRT1 N226A it was 1030 nM; on full-length hSIRT1 V224A, 900 nM.

The EC50 is the concentration needed to bring the measured effect to its halfway point. A low value points to higher potency in that assay.
